How the values were obtained:
SK-OV-3 = experiment: NCI-60 five-dose assay; type: cell-based, human; conditions: SK-OV-3 (Ovarian Cancer), 48 h
RPMI-8226 = experiment: NCI-60 five-dose assay; type: cell-based, human; conditions: RPMI-8226 (Leukemia), 48 h
SF-268 = experiment: NCI-60 five-dose assay; type: cell-based, human; conditions: SF-268 (CNS Cancer), 48 h
[1] = test system: Non-Small Cell Lung Cancer subpanel; experiment: NCI-60 five-dose assay, subpanel; type: cell-based, human
UO-31 = experiment: NCI-60 five-dose assay; type: cell-based, human; conditions: UO-31 (Renal Cancer), 48 h
MCF7 = experiment: NCI-60 five-dose assay; type: cell-based, human; conditions: MCF7 (Breast Cancer), 48 h
SK-MEL-5 = experiment: NCI-60 five-dose assay; type: cell-based, human; conditions: SK-MEL-5 (Melanoma), 48 h
A498 = experiment: NCI-60 five-dose assay; type: cell-based, human; conditions: A498 (Renal Cancer), 48 h
Ovarian Cancer subpanel = experiment: NCI-60 five-dose assay, subpanel; type: cell-based, human
BRAF^V600E = experiment: biochemical
BRAF^V600E, sequence (P28028 whole entry V585E): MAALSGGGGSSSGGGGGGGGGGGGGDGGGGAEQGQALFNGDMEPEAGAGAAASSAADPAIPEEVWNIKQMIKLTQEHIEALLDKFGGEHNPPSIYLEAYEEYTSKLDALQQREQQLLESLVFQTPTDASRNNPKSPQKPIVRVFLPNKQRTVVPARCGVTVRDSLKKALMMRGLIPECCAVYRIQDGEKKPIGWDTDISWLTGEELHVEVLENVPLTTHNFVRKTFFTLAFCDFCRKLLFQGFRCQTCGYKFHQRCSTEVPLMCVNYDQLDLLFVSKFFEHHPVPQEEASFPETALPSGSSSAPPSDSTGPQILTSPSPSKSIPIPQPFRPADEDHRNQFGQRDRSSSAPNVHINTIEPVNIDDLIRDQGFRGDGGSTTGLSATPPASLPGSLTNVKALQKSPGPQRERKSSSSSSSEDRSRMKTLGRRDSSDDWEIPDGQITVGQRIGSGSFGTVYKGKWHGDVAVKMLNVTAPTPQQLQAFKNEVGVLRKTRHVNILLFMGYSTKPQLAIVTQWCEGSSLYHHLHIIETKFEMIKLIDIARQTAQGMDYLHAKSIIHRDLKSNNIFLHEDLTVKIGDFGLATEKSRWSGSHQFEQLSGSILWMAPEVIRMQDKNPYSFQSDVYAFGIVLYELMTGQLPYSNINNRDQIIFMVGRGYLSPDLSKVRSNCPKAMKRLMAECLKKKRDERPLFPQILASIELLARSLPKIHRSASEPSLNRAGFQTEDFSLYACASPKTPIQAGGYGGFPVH

K-562 = experiment: NCI-60 five-dose assay; type: cell-based, human; conditions: K-562 (Leukemia), 48 h
OVCAR-5 = experiment: NCI-60 five-dose assay; type: cell-based, human; conditions: OVCAR-5 (Ovarian Cancer), 48 h
HCC-2998 = experiment: NCI-60 five-dose assay; type: cell-based, human; conditions: HCC-2998 (Colon Cancer), 48 h
KM12 = experiment: NCI-60 five-dose assay; type: cell-based, human; conditions: KM12 (Colon Cancer), 48 h
PC-3 = experiment: NCI-60 five-dose assay; type: cell-based, human; conditions: PC-3 (Prostate Cancer), 48 h
HCT-15 = experiment: NCI-60 five-dose assay; type: cell-based, human; conditions: HCT-15 (Colon Cancer), 48 h
NCI-H23 = experiment: NCI-60 five-dose assay; type: cell-based, human; conditions: NCI-H23 (Non-Small Cell Lung Cancer), 48 h
Renal Cancer subpanel = experiment: NCI-60 five-dose assay, subpanel; type: cell-based, human
HL-60(TB) = experiment: NCI-60 five-dose assay; type: cell-based, human; conditions: HL-60(TB) (Leukemia), 48 h
MDA-MB-231 = experiment: NCI-60 five-dose assay; type: cell-based, human; conditions: MDA-MB-231 (Breast Cancer), 48 h
HCT-116 = experiment: NCI-60 five-dose assay; type: cell-based, human; conditions: HCT-116 (Colon Cancer), 48 h
A549/ATCC = experiment: NCI-60 five-dose assay; type: cell-based, human; conditions: A549/ATCC (Non-Small Cell Lung Cancer), 48 h
SF-295 = experiment: NCI-60 five-dose assay; type: cell-based, human; conditions: SF-295 (CNS Cancer), 48 h
SN12C = experiment: NCI-60 five-dose assay; type: cell-based, human; conditions: SN12C (Renal Cancer), 48 h
Melanoma subpanel = experiment: NCI-60 five-dose assay, subpanel; type: cell-based, human
OVCAR-4 = experiment: NCI-60 five-dose assay; type: cell-based, human; conditions: OVCAR-4 (Ovarian Cancer), 48 h
[2] = Homo sapiens, read-out: GI50 Conc. per Cell Line
[3] = Homo sapiens, read-out: LC50 (the source's name)

With `O=C(NN=Cc1ccc([N+](=O)[O-])cc1)c1ccc2[nH]c(-c3ccc(Cl)cc3)nc2c1` [Compound 4c, N′-(4-Nitrobenzylidene)-2-(4-chlorophenyl)-1H-benzimidazole-5-carbohydrazide] the GI50 (SK-OV-3; [2]) was 11.4 µM, the CC50 (SK-OV-3; [3]) was > 100 µM and the TGI (SK-OV-3) was 39.60 µM. For the same compound, the GI50 (RPMI-8226; [2]) was 0.461 µM, the CC50 (RPMI-8226; [3]) was > 100 µM and the TGI (RPMI-8226) was 2.41 µM. For the same compound, the GI50 (SF-268; [2]) was 4.97 µM, the CC50 (SF-268; [3]) was > 100 µM and the TGI (SF-268) was 24.30 µM. For the same compound, the GI50 ([1]; Homo sapiens, Non-Small Cell Lung Cancer, average sensitivity of all subpanel cell lines, read-out: GI50 Subpanel MID b) was 3.52 µM, the “GI50 Selectivity Ratio (MID a/MID b)” value ([1]; Non-Small Cell Lung Cancer subpanel) was 0.93 and the GI50 (UO-31; [2]) was 6.05 µM. The CC50 (UO-31; [3]) was > 100 µM, the TGI (UO-31) was 38.30 µM and the GI50 (MCF7; [2]) was 0.582 µM. The CC50 (MCF7; [3]) was 13.3 µM, the TGI (MCF7) was 2.85 µM and the GI50 (SK-MEL-5; [2]) was 2.11 µM. The CC50 (SK-MEL-5; [3]) was 12.8 µM, the TGI (SK-MEL-5) was 4.78 µM and the TGI (A498) was 7.75 µM. It also gave a GI50 (A498; [2]) of 2.4 µM, a CC50 (A498; [3]) of 36.4 µM and a GI50 (Ovarian Cancer subpanel; Homo sapiens, Ovarian Cancer, average sensitivity of all subpanel cell lines, read-out: GI50 Subpanel MID b) of 5.77 µM. For the same compound, the “GI50 Selectivity Ratio (MID a/MID b)” value (Ovarian Cancer subpanel; Ovarian Cancer subpanel) was 0.57, the IC50 (BRAF^V600E) was 0.31 ± 0.07 µM and the GI50 (K-562; Homo sapiens, K562, read-out: GI50 Conc. per Cell Line) was 0.499 µM. It also gave a CC50 (K-562; Homo sapiens, K562, read-out: LC50 (the source's name)) of 54.6 µM, a TGI (K-562) of 8.44 µM and a GI50 (OVCAR-5; [2]) of 4.43 µM. For the same compound, the CC50 (OVCAR-5; [3]) was > 100 µM, the TGI (OVCAR-5) was 37.80 µM and the TGI (HCC-2998) was 4.81 µM. It also gave a GI50 (HCC-2998; [2]) of 1.48 µM, a CC50 (HCC-2998; [3]) of 28.1 µM and a GI50 (KM12; [2]) of 3.43 µM. It also gave a CC50 (KM12; [3]) of 82.6 µM, a TGI (KM12) of 13.00 µM and a GI50 (PC-3; [2]) of 0.42 µM. It also gave a TGI (PC-3) of 15.30 µM, a TGI (HCT-15) of 13.30 µM and a GI50 (HCT-15; [2]) of 2.6 µM. For the same compound, the CC50 (HCT-15; [3]) was > 100 µM, the GI50 (NCI-H23; [2]) was 1.85 µM and the CC50 (NCI-H23; [3]) was 67.6 µM. For the same compound, the TGI (NCI-H23) was 11.50 µM, the GI50 (Renal Cancer subpanel; Homo sapiens, Renal Cancer, average sensitivity of all subpanel cell lines, read-out: GI50 Subpanel MID b) was 4.3 µM and the “GI50 Selectivity Ratio (MID a/MID b)” value (Renal Cancer subpanel; Renal Cancer subpanel) was 0.76. The TGI (HL-60(TB)) was 5.73 µM, the GI50 (HL-60(TB); [2]) was 0.797 µM and the CC50 (HL-60(TB); [3]) was > 100 µM. The GI50 (MDA-MB-231; [2]) was 3.75 µM, the CC50 (MDA-MB-231; [3]) was 69.1 µM and the TGI (MDA-MB-231) was 13.90 µM. For the same compound, the TGI (HCT-116) was 6.90 µM, the GI50 (HCT-116; [2]) was 2.25 µM and the CC50 (HCT-116; [3]) was 82.3 µM. The TGI (A549/ATCC) was 24.10 µM, the GI50 (A549/ATCC; [2]) was 3.98 µM and the CC50 (A549/ATCC; [3]) was > 100 µM. It also gave a GI50 (SF-295; [2]) of 3.4 µM, a CC50 (SF-295; [3]) of 43.8 µM and a TGI (SF-295) of 13.10 µM. For the same compound, the GI50 (SN12C; [2]) was 3.14 µM, the CC50 (SN12C; [3]) was > 100 µM and the TGI (SN12C) was 18.10 µM. The GI50 (Melanoma subpanel; Homo sapiens, Melanoma, average sensitivity of all subpanel cell lines, read-out: GI50 Subpanel MID b) was 2.87 µM, the “GI50 Selectivity Ratio (MID a/MID b)” value (Melanoma subpanel; Melanoma subpanel) was 1.14 and the GI50 (OVCAR-4; [2]) was 2.75 µM. For the same compound, the CC50 (OVCAR-4; [3]) was > 100 µM and the TGI (OVCAR-4) was 8.64 µM.

Reference: article PMC10819888, “Benzimidazole-Based Derivatives as Apoptotic Antiproliferative Agents: Design, Synthesis, Docking, and Mechanistic Studies” (Molecules, 2024)
